± gives the standard deviation of the averaged measurements.
Legend:
Conditions in all cases: 72 h
U2OS [1] = test: drug sensitivity score (DSS) for viability; higher = more toxic; extreme values may be limits of the assay
Vero E6 [2] = test: as above
Caco-2 [3] = test: as above
Calu-3 [4] = test: as above
HepG2 [5] = test: as above
U2OS [6] = test: cell viability relative to DMSO; higher = less toxic
Vero E6 [7] = test: as above
Caco-2 [8] = test: as above
Calu-3 [9] = test: as above
HepG2 [10] = test: as above
U2OS [11] = test: relative viability EC50 (midpoint between 100% and the lowest measured viability); higher = less toxic
Vero E6 [12] = test: as above
Caco-2 [13] = test: as above
Calu-3 [14] = test: as above
HepG2 [15] = test: as above

Row | Compound | drug sensitivity score (U2OS [1]) | drug sensitivity score (Vero E6 [2]) | drug sensitivity score (Caco-2 [3]) | drug sensitivity score (Calu-3 [4]) | drug sensitivity score (HepG2 [5]) | cell viability (U2OS [6]; 1 nM) [%] | cell viability (U2OS [6]; 10 nM) [%] | cell viability (U2OS [6]; 100 nM) [%] | cell viability (U2OS [6]; 1000 nM) [%] | cell viability (U2OS [6]; 10000 nM) [%] | cell viability (Vero E6 [7]; 1 nM) [%] | cell viability (Vero E6 [7]; 10 nM) [%] | cell viability (Vero E6 [7]; 100 nM) [%] | cell viability (Vero E6 [7]; 1000 nM) [%] | cell viability (Vero E6 [7]; 10000 nM) [%] | cell viability (Caco-2 [8]; 1 nM) [%] | cell viability (Caco-2 [8]; 10 nM) [%] | cell viability (Caco-2 [8]; 100 nM) [%] | cell viability (Caco-2 [8]; 1000 nM) [%] | cell viability (Caco-2 [8]; 10000 nM) [%] | cell viability (Calu-3 [9]; 1 nM) [%] | cell viability (Calu-3 [9]; 10 nM) [%] | cell viability (Calu-3 [9]; 100 nM) [%] | cell viability (Calu-3 [9]; 1000 nM) [%] | cell viability (Calu-3 [9]; 10000 nM) [%] | cell viability (HepG2 [10]; 1 nM) [%] | cell viability (HepG2 [10]; 10 nM) [%] | cell viability (HepG2 [10]; 100 nM) [%] | cell viability (HepG2 [10]; 1000 nM) [%] | cell viability (HepG2 [10]; 10000 nM) [%] | relative viability EC50 (U2OS [11]) [µM] | relative viability EC50 (Vero E6 [12]) [µM] | relative viability EC50 (Caco-2 [13]) [µM] | relative viability EC50 (Calu-3 [14]) [µM] | relative viability EC50 (HepG2 [15]) [µM]
1 | C=CCN1CC[C@]2(C)c3cc(O)ccc3C[C@H]1[C@H]2C | 0 | 0 | 0 | 0 | 0 | 98.6 | 98.2 | 103 | 99.2 | 101 | 96.9 | 102 | 93.4 | 100 | 107 | 97.3 | 99 | 102 | 103 | 96.3 | 102 | 90.2 | 94.7 | 90.3 | 93.8 | 98 | 95.4 | 108 | 104 | 117 | > 10 | > 10 | > 10 | > 10 | > 10
2 | CC(C)N(CCCNC(=O)Nc1ccc(C(C)(C)C)cc1)C[C@H]1O[C@@H](n2ccc3c(N)ncnc32)[C@H](O)[C@@H]1O | 0 | 0 | 0 | 0 | 0 | 94.1 | 100 | 92.9 | 102 | 101 | 94.3 | 97 | 97.4 | 99.9 | 99.5 | 99.7 | 97.2 | 95.2 | 86.5 | 103 | 96.3 | 106 | 92.4 | 102 | 108 | 104 | 105 | 107 | 91.5 | 111 | > 10 | > 10 | > 10 | > 10 | > 10
3 | CN[C@H](CNC(=O)N1CCC[C@@H]([C@@H](OCCNC(=O)OC)c2cccc(Cl)c2)C1)C[C@H]1CCCOC1 | 0 | 0 | 0 | 0 | 0 | 97.3 | 98.1 | 106 | 97.7 | 99.1 | 101 | 101 | 98.4 | 107 | 98.5 | 98.2 | 96.1 | 97.1 | 90.1 | 94.5 | 103 | 96.2 | 102 | 102 | 98.1 | 101 | 108 | 92.5 | 98.6 | 95 | > 10 | > 10 | > 10 | > 10 | > 10
4 | COC(=O)c1c(C)[nH]c(C)c1C(=O)c1ccccc1Cc1ccccc1 | 0 | 0 | 0.3 | 0 | 0 | 99.5 | 103 | 87.8 | 102 | 92.1 | 100 | 101 | 98 | 94.1 | 99.8 | 98.6 | 97.1 | 98.1 | 99.9 | 84.8 | 90.1 | 106 | 89.8 | 108 | 90.1 | 99.2 | 94.8 | 109 | 95.8 | 104 | > 10 | > 10 | > 10 | > 10 | > 10
5 | COc1cc(OC)c(C(=O)CCCCN2CCC3(CC2)NC(=O)NC3=O)cc1NS(=O)(=O)c1ccc(C(F)(F)F)cc1 | 0 | 0 | 0 | 0 | 0 | 98.8 | 106 | 99.7 | 101 | 94.7 | 103 | 106 | 102 | 99.5 | 99.7 | 102 | 103 | 107 | 98.7 | 93.6 | 98.2 | 108 | 81.2 | 93.9 | 93.6 | 102 | 111 | 95.3 | 89.1 | 105 | > 10 | > 10 | > 10 | > 10 | > 10
6 | COc1ccc(Oc2c(Cl)cnn(C3c4ccccc4-c4ccccc43)c2=O)cc1 | 0 | 0 | 0 | 0 | 0 | 102 | 95.1 | 94.3 | 97.9 | 95.5 | 92.6 | 107 | 94.7 | 96.4 | 99.6 | 98.7 | 95 | 97 | 101 | 88.7 | 110 | 99.9 | 96.4 | 101 | 101 | 103 | 99.8 | 93.5 | 108 | 100 | > 10 | > 10 | > 10 | > 10 | > 10
7 | CC1CNc2c(cccc2S(=O)(=O)N[C@@H](CCCNC(=N)N)C(=O)N2CC[C@@H](C)C[C@@H]2C(=O)O)C1 (mixture of isomers) [argatroban] | 0 | 0 | 0 | 0 | 0 | 98.2 | 104 | 98.9 | 102 | 96.2 | 97.7 | 99.1 | 99.2 | 93.4 | 102 | 96.5 | 97.1 | 86.3 | 105 | 94.3 | 91.3 | 97.4 | 98.7 | 93.8 | 94.6 | 113 | 93.7 | 96.1 | 87.4 | 97.8 | > 10 | > 10 | > 10 | > 10 | > 10
8 | CC(C)[C@H](N)C(=O)OCC(CO)OCn1cnc2c(=O)nc(N)[nH]c21 (mixture of isomers) [valganciclovir] | 0 | 0 | 0.3 | 0 | 0 | 90.7 | 102 | 98.2 | 104 | 108 | 99.3 | 91.8 | 103 | 97.4 | 97.4 | 94.3 | 107 | 103 | 114 | 80 | 107 | 101 | 108 | 104 | 91.8 | 97.9 | 95 | 97.3 | 95.8 | 90.5 | > 10 | > 10 | > 10 | > 10 | > 10
9 | CN(C)CC[C@@]1(c2ccc(Cl)cc2)Cc2ccccc2C(=O)O1 (racemic) [AC-7954-(+/-)] | 0 | 0 | 0 | 0 | 0 | 99 | 94.9 | 99.4 | 105 | 102 | 91.4 | 94.8 | 88.3 | 92.8 | 100 | 103 | 92.4 | 98.3 | 102 | 106 | 98.2 | 104 | 103 | 96.5 | 104 | 89.8 | 104 | 104 | 96.4 | 94.8 | > 10 | > 10 | > 10 | > 10 | > 10
10 | CN/C(=N\S(=O)(=O)c1ccc(Cl)cc1)N1C[C@H](c2ccccc2)C(c2ccc(Cl)cc2)=N1 (racemic) [SLV-319-(+/-)] | 0 | 0 | 0.2 | 0 | 0.1 | 99.9 | 99.1 | 102 | 98.9 | 93.1 | 98.1 | 105 | 100 | 91.3 | 94.8 | 95.1 | 96.3 | 100 | 103 | 83.1 | 107 | 98.5 | 100 | 118 | 111 | 108 | 94.2 | 99.9 | 89.6 | 93.7 | > 10 | > 10 | > 10 | > 10 | > 10
11 | C[C@@H](C(=O)O)c1ccc(-c2ccccc2)c(F)c1 (racemic) [flurbiprofen-(+/-)] | 0 | 0 | 0 | 0.0333 ± 0.058 | 0 | 101.1 ± 1 | 100 ± 7.2 | 99.4 ± 2.7 | 99 ± 2.2 | 96.4 ± 5 | 100 ± 1.8 | 100 ± 1.6 | 97.15 ± 0.92 | 95.7 ± 6.5 | 97.2 ± 1.3 | 98.7 ± 8 | 95.2 ± 2.5 | 95.5 ± 4 | 96 ± 3.3 | 96 ± 8.2 | 92.6 ± 3.4 | 98.7 ± 5.3 | 93.3 ± 9.1 | 96.3 ± 3.1 | 98.3 ± 12 | 94.95 ± 0.21 | 101 ± 9.9 | 94.9 ± 4 | 101 ± 2.8 | 100 ± 1.4 | > 10 | > 10 | > 10 | > 10 | > 10
12 | NC(Cc1ccc(I)cc1)C(=O)O (stereo in doubt) [4-iodo-L-phenylalanine] | 0 | 0 | 0 | 0 | 0 | 102 | 97.8 | 98.8 | 102 | 97.6 | 96.7 | 99.2 | 97.4 | 94.4 | 103 | 102 | 97.4 | 98.2 | 97.3 | 106 | 103 | 101 | 106 | 108 | 95.2 | 96.3 | 101 | 82.5 | 104 | 109 | > 10 | > 10 | > 10 | > 10 | > 10
13 | O=C(O)c1cc(O)c2c(Cl)cc(Cl)cc2n1 [5,7-dichlorokynurenic-acid] | 0 | 0 | 0 | 0 | 0 | 96 | 98.2 | 98.2 | 103 | 95.7 | 95.3 | 96.4 | 100 | 98.6 | 98.3 | 98.7 | 98.1 | 96.1 | 92.1 | 96.8 | 105 | 99.8 | 98.8 | 110 | 112 | 96.3 | 99.3 | 106 | 96.5 | 102 | > 10 | > 10 | > 10 | > 10 | > 10

Source: the supplement of paper PMC13380429
